Some targets named below: Histamine H2 receptor (Homo sapiens, UniProt P25021); Substance-P receptor (Homo sapiens, UniProt P25103); D(1A) dopamine receptor (Homo sapiens, UniProt P21728); Estrogen receptor beta (Homo sapiens, UniProt Q92731).
The target of a further test is Histamine H1 receptor (Homo sapiens, UniProt P35367). The class given is functional, cell-based.
Test [1] addresses T1, Peroxisome proliferator-activated receptor gamma (Homo sapiens, UniProt P37231).
T1 sequence (P37231 whole entry): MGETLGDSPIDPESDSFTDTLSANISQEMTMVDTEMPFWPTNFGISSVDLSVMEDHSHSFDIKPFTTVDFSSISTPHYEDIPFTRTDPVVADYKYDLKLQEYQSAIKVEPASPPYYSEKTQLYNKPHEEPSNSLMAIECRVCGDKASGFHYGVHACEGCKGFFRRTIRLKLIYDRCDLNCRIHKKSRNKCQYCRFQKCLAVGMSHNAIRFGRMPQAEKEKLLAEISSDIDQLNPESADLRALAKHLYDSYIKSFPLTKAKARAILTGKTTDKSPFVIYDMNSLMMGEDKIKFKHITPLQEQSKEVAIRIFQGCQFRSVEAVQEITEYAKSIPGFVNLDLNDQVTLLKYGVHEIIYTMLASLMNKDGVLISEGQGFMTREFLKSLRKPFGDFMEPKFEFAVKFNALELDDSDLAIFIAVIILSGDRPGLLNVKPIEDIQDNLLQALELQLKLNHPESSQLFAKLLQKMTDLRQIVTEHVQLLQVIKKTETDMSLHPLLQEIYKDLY
Type of test: functional.

Test [2] addresses T1, Peroxisome proliferator-activated receptor gamma. Type of test: functional. The source holds these as a separate data set.
The target in test [3] is Voltage-dependent N-type calcium channel subunit alpha-1B (Rattus norvegicus, UniProt Q02294). The class given is functional.
In test [4] the target is Neurotensin receptor type 1 (Homo sapiens, UniProt P30989).
The next test deals with T2, Progesterone receptor (Homo sapiens, UniProt P06401).
T2 sequence (P06401 whole entry): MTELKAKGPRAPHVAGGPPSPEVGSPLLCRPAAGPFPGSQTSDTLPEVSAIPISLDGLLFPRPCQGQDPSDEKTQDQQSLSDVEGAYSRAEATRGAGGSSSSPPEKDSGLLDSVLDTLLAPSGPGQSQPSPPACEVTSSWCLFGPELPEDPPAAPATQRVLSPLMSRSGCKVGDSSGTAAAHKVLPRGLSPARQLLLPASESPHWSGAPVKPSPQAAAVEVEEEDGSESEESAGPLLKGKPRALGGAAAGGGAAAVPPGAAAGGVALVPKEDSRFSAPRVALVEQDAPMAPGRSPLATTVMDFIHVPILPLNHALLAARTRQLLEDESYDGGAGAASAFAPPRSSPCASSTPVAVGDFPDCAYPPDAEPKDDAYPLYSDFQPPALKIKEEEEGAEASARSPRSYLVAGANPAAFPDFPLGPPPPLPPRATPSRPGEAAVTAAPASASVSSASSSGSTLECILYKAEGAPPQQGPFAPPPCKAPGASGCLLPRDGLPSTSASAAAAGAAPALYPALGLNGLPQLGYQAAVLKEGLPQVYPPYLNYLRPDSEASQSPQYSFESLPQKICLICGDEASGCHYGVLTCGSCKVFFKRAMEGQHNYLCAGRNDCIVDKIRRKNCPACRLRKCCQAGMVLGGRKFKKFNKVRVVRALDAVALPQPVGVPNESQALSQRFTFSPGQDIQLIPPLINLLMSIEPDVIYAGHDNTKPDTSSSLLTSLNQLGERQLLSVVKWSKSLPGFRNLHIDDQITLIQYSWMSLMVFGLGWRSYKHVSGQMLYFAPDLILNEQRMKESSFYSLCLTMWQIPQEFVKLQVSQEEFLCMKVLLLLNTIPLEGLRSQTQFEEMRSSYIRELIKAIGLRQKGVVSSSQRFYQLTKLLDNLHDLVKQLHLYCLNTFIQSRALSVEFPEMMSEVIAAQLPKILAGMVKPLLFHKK

Test [5] has as its target T3, 5-hydroxytryptamine receptor 1A (Homo sapiens, UniProt P08908).
T3 sequence (P08908 whole entry): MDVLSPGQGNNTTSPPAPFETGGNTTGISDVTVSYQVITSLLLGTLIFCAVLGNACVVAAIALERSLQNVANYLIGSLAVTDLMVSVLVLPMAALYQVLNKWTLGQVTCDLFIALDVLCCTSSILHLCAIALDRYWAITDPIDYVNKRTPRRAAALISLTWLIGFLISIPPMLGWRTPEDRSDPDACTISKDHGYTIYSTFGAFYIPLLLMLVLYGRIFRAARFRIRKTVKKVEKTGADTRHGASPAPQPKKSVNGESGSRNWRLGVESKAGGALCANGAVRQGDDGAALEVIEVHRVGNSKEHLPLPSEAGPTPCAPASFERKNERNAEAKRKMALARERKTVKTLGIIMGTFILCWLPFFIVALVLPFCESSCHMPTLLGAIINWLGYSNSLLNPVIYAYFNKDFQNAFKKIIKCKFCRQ

In test [6] the target is T4, Muscarinic acetylcholine receptor M2 (Homo sapiens, UniProt P08172).
T4 sequence (P08172 whole entry): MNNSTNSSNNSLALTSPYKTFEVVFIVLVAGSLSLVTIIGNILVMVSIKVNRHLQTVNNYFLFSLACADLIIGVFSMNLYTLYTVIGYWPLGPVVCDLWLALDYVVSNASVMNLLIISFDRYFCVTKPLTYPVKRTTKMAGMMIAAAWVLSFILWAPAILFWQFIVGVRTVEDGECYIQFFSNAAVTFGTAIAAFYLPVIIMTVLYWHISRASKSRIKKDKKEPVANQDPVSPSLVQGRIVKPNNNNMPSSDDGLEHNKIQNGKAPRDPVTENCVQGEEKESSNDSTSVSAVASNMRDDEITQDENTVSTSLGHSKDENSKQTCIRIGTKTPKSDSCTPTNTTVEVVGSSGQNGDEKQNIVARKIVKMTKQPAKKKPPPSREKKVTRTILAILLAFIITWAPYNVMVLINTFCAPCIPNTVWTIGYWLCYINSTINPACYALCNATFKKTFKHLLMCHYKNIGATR
Also: assay procedure not described here.

Chain of Voltage-dependent N-type calcium channel subunit alpha-1B (Q02294 whole entry): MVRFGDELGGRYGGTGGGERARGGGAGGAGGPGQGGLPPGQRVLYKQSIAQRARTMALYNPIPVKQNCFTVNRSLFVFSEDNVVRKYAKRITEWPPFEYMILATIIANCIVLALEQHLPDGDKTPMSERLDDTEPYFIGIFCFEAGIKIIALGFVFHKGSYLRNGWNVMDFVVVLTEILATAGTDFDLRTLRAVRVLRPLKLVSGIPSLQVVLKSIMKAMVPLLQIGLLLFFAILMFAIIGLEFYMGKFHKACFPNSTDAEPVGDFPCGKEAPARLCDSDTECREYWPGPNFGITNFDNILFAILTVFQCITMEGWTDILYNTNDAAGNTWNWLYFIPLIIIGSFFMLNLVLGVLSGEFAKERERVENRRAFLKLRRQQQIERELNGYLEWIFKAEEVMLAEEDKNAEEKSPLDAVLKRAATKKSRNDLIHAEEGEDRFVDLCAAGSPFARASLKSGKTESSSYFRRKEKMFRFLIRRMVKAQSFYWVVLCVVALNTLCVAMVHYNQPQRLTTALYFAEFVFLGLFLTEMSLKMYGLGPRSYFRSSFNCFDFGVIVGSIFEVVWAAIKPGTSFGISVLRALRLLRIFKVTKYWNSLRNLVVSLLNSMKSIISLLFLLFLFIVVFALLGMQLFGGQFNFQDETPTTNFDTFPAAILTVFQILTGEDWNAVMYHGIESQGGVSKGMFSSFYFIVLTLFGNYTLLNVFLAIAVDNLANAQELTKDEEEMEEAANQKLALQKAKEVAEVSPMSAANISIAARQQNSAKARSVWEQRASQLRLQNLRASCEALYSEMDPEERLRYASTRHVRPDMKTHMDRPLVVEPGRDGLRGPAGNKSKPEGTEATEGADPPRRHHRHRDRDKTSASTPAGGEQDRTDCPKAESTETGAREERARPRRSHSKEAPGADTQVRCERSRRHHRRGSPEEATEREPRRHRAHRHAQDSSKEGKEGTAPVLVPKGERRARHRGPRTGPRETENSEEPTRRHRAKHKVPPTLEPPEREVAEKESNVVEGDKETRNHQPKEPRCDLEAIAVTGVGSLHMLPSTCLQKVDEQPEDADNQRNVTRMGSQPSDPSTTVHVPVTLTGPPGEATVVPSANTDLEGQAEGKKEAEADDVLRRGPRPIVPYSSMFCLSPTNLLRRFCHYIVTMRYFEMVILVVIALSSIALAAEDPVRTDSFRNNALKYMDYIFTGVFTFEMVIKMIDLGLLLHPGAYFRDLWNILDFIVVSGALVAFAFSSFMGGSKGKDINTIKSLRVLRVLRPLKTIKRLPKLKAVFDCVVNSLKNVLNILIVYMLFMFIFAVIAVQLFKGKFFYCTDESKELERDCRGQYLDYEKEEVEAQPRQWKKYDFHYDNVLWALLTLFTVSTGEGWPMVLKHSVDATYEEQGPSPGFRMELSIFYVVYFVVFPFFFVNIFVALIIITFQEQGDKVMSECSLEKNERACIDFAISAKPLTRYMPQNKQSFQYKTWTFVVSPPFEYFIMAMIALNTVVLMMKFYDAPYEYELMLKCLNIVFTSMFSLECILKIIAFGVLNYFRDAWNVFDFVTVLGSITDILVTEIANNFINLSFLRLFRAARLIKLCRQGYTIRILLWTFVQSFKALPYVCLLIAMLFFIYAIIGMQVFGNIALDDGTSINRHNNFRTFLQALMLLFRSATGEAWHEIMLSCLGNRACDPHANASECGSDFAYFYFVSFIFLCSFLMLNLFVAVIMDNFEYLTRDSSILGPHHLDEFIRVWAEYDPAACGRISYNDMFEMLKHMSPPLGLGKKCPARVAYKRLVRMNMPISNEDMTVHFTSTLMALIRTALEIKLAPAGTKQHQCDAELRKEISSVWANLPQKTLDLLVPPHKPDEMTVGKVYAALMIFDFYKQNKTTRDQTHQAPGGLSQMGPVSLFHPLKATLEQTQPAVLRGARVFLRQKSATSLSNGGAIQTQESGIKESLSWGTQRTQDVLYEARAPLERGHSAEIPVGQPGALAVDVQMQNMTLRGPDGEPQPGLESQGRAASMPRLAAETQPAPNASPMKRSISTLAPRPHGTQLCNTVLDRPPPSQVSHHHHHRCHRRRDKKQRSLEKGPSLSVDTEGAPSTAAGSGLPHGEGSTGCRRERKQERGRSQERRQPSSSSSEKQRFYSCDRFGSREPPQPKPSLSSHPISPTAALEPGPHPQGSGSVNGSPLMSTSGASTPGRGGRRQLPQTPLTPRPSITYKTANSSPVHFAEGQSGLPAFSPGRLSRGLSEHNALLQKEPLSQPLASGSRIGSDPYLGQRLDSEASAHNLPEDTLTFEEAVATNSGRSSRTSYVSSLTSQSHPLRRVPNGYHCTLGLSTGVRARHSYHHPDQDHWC
Chain of D(1A) dopamine receptor (P21728 whole entry): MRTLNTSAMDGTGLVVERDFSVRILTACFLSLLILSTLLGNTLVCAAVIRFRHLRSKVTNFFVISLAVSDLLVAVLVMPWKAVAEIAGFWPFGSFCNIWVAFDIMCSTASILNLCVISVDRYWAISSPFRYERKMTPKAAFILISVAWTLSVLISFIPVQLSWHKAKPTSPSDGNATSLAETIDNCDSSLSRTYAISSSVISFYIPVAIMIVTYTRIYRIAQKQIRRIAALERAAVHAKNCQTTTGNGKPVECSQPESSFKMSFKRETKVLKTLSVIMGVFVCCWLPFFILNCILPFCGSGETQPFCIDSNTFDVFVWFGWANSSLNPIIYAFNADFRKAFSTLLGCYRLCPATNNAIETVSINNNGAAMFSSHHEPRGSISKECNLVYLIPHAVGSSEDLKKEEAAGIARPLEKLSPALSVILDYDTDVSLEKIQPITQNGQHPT
Chain of Neurotensin receptor type 1 (P30989 whole entry): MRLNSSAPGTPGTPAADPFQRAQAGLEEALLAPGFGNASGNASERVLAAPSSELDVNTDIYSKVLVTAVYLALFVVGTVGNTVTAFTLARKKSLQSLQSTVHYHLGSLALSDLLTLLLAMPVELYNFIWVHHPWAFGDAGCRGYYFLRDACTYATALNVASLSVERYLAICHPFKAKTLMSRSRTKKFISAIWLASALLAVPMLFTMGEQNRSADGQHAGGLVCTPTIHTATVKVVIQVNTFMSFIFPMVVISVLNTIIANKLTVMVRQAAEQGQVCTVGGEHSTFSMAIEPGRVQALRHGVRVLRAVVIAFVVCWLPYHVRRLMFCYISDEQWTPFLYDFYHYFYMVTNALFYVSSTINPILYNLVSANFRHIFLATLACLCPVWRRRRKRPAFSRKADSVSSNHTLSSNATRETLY
Chain of Substance-P receptor (P25103 whole entry): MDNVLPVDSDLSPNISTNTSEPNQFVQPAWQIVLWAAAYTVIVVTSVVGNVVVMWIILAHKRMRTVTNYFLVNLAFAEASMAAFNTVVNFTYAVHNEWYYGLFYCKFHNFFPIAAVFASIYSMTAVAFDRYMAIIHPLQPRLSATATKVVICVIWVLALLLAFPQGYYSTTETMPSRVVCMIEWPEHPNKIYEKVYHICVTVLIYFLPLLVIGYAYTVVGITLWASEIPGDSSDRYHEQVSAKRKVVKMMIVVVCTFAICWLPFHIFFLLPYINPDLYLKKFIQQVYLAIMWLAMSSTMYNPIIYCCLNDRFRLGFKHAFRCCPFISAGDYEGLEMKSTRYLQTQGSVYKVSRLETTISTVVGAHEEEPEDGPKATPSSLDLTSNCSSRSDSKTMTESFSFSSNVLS
Chain of Histamine H2 receptor (P25021 whole entry): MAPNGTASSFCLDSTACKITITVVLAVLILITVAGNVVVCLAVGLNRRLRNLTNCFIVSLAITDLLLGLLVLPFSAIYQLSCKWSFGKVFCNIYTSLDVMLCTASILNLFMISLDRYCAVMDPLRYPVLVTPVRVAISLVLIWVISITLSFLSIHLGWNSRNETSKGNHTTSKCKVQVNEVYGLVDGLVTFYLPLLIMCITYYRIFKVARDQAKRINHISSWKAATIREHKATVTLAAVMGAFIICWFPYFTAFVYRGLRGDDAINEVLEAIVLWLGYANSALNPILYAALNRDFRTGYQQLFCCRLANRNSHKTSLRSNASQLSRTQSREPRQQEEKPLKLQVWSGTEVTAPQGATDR
Chain of Histamine H1 receptor (P35367 whole entry): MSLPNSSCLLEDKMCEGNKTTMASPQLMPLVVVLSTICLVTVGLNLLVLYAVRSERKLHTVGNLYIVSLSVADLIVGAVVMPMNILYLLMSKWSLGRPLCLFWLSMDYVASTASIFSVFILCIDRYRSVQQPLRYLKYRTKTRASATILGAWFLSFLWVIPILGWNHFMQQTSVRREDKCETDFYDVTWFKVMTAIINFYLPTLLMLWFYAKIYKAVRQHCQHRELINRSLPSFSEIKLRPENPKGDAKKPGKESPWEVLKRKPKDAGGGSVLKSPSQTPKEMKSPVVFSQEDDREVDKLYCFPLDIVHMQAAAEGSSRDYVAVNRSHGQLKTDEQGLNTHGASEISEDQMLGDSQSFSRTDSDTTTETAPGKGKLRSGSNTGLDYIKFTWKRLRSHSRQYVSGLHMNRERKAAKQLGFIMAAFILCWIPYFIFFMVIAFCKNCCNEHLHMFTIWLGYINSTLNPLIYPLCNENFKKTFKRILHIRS
Chain of Estrogen receptor beta (Q92731 whole entry): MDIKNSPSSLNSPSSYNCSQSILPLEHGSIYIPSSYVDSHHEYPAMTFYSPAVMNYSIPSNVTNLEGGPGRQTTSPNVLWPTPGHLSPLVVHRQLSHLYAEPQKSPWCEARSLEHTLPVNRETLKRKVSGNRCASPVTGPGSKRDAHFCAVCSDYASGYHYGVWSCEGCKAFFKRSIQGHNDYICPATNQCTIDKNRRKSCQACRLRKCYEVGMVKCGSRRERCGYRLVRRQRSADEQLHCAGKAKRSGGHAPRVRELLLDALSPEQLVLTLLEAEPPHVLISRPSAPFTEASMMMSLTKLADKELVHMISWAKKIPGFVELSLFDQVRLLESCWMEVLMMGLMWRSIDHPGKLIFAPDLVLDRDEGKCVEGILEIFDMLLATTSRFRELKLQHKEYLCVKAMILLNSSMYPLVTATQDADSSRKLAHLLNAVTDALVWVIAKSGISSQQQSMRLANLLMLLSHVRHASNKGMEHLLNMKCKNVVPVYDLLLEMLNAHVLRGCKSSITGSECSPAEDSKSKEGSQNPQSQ

In the case of `CCN(CC)C(=O)C1CN2CCc3cc(OC)c(OC)cc3C2CC1OC(C)=O` (stereo unspecified) [BENZQUINAMIDE], the half-maximal activity concentration (AC50) (at Histamine H1 receptor; in test [1]; in [2]) was more than 30 µM each time.

Turning to `CCCC(C)(COC(N)=O)COC(=O)NC(C)C` (stereo unspecified) [CARISOPRODOL], the AC50 in [3] was more than 10 µM; at Histamine H1 receptor, more than 30 µM; on Histamine H2 receptor it was more than 10 µM; in test [4], more than 30 µM; on Progesterone receptor it was more than 30 µM; at Substance-P receptor it was more than 10 µM. Further, the concentration at half-maximal activity (AC50) (in test [5]; in [6]; on D(1A) dopamine receptor) was more than 10 µM each time.

Molecule `COCCOC(=O)C1=C(C)NC(C)=C(C(=O)OC/C=C/c2ccccc2)C1c1cccc([N+](=O)[O-])c1` (stereo unspecified) [CILNIDIPINE] returned a half-maximal activity concentration (AC50) at Histamine H1 receptor of more than 30 µM.

In the case of `COC1=C(OC)C(=O)C(CCCCCCCCCCO)=C(C)C1=O` [IDEBENONE], the concentration at half-maximal activity (AC50) is more than 10 µM in [3]; more than 30 µM at Estrogen receptor beta; more than 10 µM on Histamine H2 receptor; more than 30 µM in test [4]; 27.6 µM at Progesterone receptor; more than 10 µM on Substance-P receptor. Also, the AC50 (in [5]; in [6]; on D(1A) dopamine receptor) was more than 10 µM each time.

Turning to `CC1(C)C(/C=C/C=C/C=C/C=C2\N(CCCCS(=O)(=O)O)c3ccc4ccccc4c3C2(C)C)=[N+](CCCCS(=O)(=O)[O-])c2ccc3ccccc3c21` [INDOCYANINE GREEN ACID FORM], the AC50 on Histamine H1 receptor was more than 30 µM.

As for `CCCC[C@H](C)C[C@H](O)/C=C/[C@H]1[C@H](O)CC(=O)[C@@H]1CCCC/C=C/C(=O)O` [LIMAPROST], the half-maximal activity concentration (AC50) (at Histamine H1 receptor; in test [1]; in [2]) was more than 30 µM each time.

Take `Cc1ccc(NC(=O)C2(c3ccc4c(c3)OC(F)(F)O4)CC2)nc1-c1cccc(C(=O)O)c1` [LUMACAFTOR]: the half-maximal activity concentration (AC50) (on Histamine H1 receptor; in test [1]; in [2]) was more than 30 µM each time.

Regarding `CCOC(=O)Nc1ccc2c(c1)N(C(=O)CCN1CCOCC1)c1ccccc1S2` [MORICIZINE], the AC50 (at Histamine H1 receptor; in test [1]; in test [2]) was more than 30 µM each time.

Take `O=C1CN=C(c2ccccc2)c2cc(Cl)ccc2N1` [NORDAZEPAM]: the AC50 in test [3] was more than 10 µM; on Estrogen receptor beta, more than 30 µM; on Histamine H2 receptor, more than 10 µM; in [4], 14 µM; at Progesterone receptor it was more than 30 µM; on Substance-P receptor, more than 10 µM. For the same molecule, the concentration at half-maximal activity (AC50) (in test [5]; in [6]; at D(1A) dopamine receptor) was more than 10 µM throughout.

With `O=C1Nc2ccc(Cl)cc2C(c2ccccc2)=NC1O` (stereo unspecified) [OXAZEPAM], the half-maximal activity concentration (AC50) in [3] was more than 10 µM; at Estrogen receptor beta, more than 30 µM; on Histamine H1 receptor it was more than 30 µM; at Histamine H2 receptor, more than 10 µM; in test [4], more than 30 µM; on Progesterone receptor, more than 30 µM. Moreover, the half-maximal activity concentration (AC50) (at Substance-P receptor; in test [5]; in [6]; on D(1A) dopamine receptor) was more than 10 µM each time.

With `Cc1ccc(=O)n(-c2ccccc2)c1` [PIRFENIDONE], the half-maximal activity concentration (AC50) (at Histamine H1 receptor; in [1]; in [2]) was more than 30 µM each time.

At Histamine H1 receptor, `Cc1ccc2c(-c3ccccc3)nc(=O)n(C(C)C)c2c1` [PROQUAZONE] showed an AC50 of more than 30 µM.

The molecule `CN1CCN(c2c(F)cc3c(=O)c(C(=O)O)cn4c3c2SCC4)CC1` [RUFLOXACIN] had an AC50 on Histamine H1 receptor of more than 30 µM.

In the case of `CC(C)CC(N(C)C)C1(c2ccc(Cl)cc2)CCC1` (stereo unspecified) [SIBUTRAMINE], the AC50 is more than 10 µM in [3]; more than 30 µM at Estrogen receptor beta; more than 10 µM on Histamine H2 receptor; more than 30 µM in [4]; more than 30 µM on Progesterone receptor; more than 10 µM at Substance-P receptor. Besides, the AC50 (in [5]; in test [6]; on D(1A) dopamine receptor) was more than 10 µM in each case.

Take `CN1c2ccccc2C(NCCCCCCC(=O)O)c2ccc(Cl)cc2S1(=O)=O` (stereo unspecified) [TIANEPTINE]: at Histamine H1 receptor, the half-maximal activity concentration (AC50) was more than 30 µM.

As a reminder, the AC50 is the midpoint of the concentration-response curve, whichever way the signal moves.

Source of the values: ChEMBL document CHEMBL5291721, “A preclinical secondary pharmacology resource illuminates target-adverse drug reaction associations of marketed drugs” (Nat Commun, 2023).
